The values that follow are results of earlier work, collected in patent US20060110477A1, “Composition and method for supporting and promoting healthy sexual function and prevention and treatment of sexual dysfunction” (priority 2004, published 2006).

This series concerns the target rat cGMP-specific PDE5 (Rattus norvegicus, UniProt O54735).

For the molecule `COc1cc(O)c(CC=C(C)C)c2oc(-c3ccc(O)cc3)c(O)c(=O)c12` [sophoflavescenol], where the note is “among the flavonols in the ethyl acetate fraction”, the “relative potency against cGMP PDE5” value was “most potent”. Besides, the “IC50 ratio PDE4/PDE5” value (selectivity between PDE isoforms) was 196.2.
